Molecular target: T1, recombinant guanylate cyclase reporter cell line (Rattus norvegicus, UniProt P19686+P20595)
T1 construct: expressed in transfected cells
T1 sequence (P20595 1-619): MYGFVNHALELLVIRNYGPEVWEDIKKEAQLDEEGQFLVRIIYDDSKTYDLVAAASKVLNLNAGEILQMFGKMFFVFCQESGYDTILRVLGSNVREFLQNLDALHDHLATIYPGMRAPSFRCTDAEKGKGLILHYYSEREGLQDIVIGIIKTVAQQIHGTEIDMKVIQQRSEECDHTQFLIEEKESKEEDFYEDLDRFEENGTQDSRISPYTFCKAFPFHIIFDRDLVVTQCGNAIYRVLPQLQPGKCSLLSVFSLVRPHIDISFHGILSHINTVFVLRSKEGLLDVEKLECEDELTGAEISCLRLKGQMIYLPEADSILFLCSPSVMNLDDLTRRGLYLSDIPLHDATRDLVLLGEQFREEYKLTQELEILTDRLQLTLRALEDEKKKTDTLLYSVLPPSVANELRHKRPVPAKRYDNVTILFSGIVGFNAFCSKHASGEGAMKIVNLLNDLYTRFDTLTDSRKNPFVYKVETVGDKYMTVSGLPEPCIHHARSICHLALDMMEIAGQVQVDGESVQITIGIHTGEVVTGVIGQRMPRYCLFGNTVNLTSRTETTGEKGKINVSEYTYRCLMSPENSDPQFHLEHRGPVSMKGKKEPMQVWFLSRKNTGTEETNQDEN
T1 sequence (P19686 1-690): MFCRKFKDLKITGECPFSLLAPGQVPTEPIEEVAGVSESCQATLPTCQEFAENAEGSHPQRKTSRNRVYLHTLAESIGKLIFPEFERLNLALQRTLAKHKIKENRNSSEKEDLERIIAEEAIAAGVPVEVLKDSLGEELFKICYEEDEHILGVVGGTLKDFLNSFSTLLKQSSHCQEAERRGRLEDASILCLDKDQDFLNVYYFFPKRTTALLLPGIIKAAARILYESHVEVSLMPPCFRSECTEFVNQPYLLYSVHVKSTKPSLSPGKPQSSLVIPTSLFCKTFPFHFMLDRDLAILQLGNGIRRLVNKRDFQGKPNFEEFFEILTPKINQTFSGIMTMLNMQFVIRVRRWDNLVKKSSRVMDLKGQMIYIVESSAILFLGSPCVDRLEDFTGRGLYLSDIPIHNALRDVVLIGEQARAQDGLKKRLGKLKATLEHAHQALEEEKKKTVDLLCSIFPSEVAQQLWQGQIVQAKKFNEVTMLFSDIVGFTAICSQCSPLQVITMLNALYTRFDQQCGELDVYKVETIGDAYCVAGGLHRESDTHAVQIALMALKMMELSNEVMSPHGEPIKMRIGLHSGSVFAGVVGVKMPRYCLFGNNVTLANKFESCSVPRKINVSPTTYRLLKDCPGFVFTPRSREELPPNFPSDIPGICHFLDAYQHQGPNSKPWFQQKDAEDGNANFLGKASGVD
Test: Effect on a recombinant guanylate cyclase reporter cell line (B-2)
Assay type: cell-based
Conditions: MEC = minimum effective concentration; in some cases mean values from individual determinations
Protocol: B-2. Effect on a Recombinant Guanylate Cyclase Reporter Cell Line
The cellular activity of the compounds according to the invention is determined using a recombinant guanylate cyclase reporter cell line, as described in F. Wunder et al., Anal. Biochem. 339, 104-112 (2005).
Representative MEC values (MEC=minimum effective concentration) for the compounds of the invention are shown in the table below (in some cases as mean values from individual determinations): […]

Compound | MEC
Cc1cc(OC(C)c2c(F)cccc2F)c2nc(C)c(C(=O)NC(C#N)c3ccc(Cl)cc3)n2c1 (centres unmarked) [Example 26, N-[(4-chlorophenyl)(cyano)methyl]-8-[1-(2,6-difluorophenyl)ethoxy]-2,6-dimethylimidazo[1,2-a]pyridine-3-carboxamide] | 10 µM
Cc1cc(OCc2c(F)ccc(F)c2F)c2nc(C)c(C(=O)NC(C#N)c3ccc(Cl)cc3)n2c1 (racemic) [Example 17, rac-N-[(4-Chlorophenyl)(cyano)methyl]-2,6-dimethyl-8-[(2,3,6-trifluorobenzyl)oxy]imidazo[1,2-a]pyridine-3-carboxamide] | 0.3 µM
Cc1cc(OCc2c(F)cccc2F)c2nc(C)c(C(=O)NCC#N)n2c1 [Example 2, N-(cyanomethyl)-8-[(2,6-difluorobenzyl)oxy]-2,6-dimethylimidazo[1,2-a]pyridine-3-carboxamide] | 0.3 µM
Cc1cc(OCc2c(F)ccc(C3CC3)c2F)c2nc(C)c(C(=O)NCC3CCC(C#N)CC3)n2c1 (centres unmarked) [Example 40, N-[(4-Cyanocyclohexyl)methyl]-8-[(3-cyclopropyl-2,6-difluorobenzyl)oxy]-2,6-dimethylimidazo[1,2-a]pyridine-3-carboxamide] | 3 µM
Cc1cc(OCCC(C)C)c2nc(C)c(C(=O)NC(C#N)c3ccc(Cl)cc3)n2c1 (racemic) [Example 25, rac-N-[(4-chlorophenyl)(cyano)methyl]-2,6-dimethyl-8-(3-methylbutoxy)imidazo[1,2-a]pyridine-3-carboxamide] | 3 µM
COc1cc(OCc2c(F)cccc2F)c2nc(C)c(C(=O)NC(C#N)c3ccc(Cl)cc3)n2c1 (racemic) [Example 28, rac-N-[(4-chlorophenyl)(cyano)methyl]-8-[(2,6-difluorobenzyl)oxy]-6-methoxy-2-methylimidazo[1,2-a]pyridine-3-carboxamide] | 1 µM
Cc1cc(OCc2c(F)cccc2F)c2nc(C)c(C(=O)NC3CNCC(C#N)C3)n2c1 (centres unmarked) [Example 38, N-(5-Cyanopiperidin-3-yl)-8-[(2,6-difluorobenzyl)oxy]-2,6-dimethylimidazo[1,2-a]pyridine-3-carboxamide] | 0.3 µM
Cc1cc(OCc2c(F)cccc2F)c2nc(C)c(C(=O)NC(C)C#N)n2c1 (racemic) [Example 1, rac-N-(1-Cyanoethyl)-8-[(2,6-difluorobenzyl)oxy]-2,6-dimethylimidazo[1,2-a]pyridine-3-carboxamide] | 0.55 µM
Cc1cc(OCc2c(F)cccc2F)c2nc(C)c(C(=O)NCCC#N)n2c1 [Example 9, N-(2-cyanoethyl)-8-[(2,6-difluorobenzyl)oxy]-2,6-dimethylimidazo[1,2-a]pyridine-3-carboxamide] | 0.3 µM
Cc1cc(OCc2c(F)cccc2F)c2nc(C)c(C(=O)Nc3[nH]ncc3C#N)n2c1 [Example 33, N-(4-cyano-1H-pyrazol-5-yl)-8-[(2,6-difluorobenzyl)oxy]-2,6-dimethylimidazo[1,2-a]pyridine-3-carboxamide] | 1 µM
Cc1cc(OCc2c(F)cccc2F)c2nc(C)c(C(=O)NC(C)C#N)n2c1 (single isomer, unassigned) [Example 16, ent-N-(1-Cyanoethyl)-8-[(2,6-difluorobenzyl)oxy]-2,6-dimethylimidazo[1,2-a]pyridine-3-carboxamide] | 0.3 µM
Cc1cc(OCc2c(F)cccc2F)c2nc(C)c(C(=O)NCC(N)CCC#N)n2c1 (racemic) [Example 44, rac-N-(2-Amino-4-cyanobutyl)-8-[(2,6-difluorobenzyl)oxy]-2,6-dimethylimidazo[1,2-a]pyridine-3-carboxamide] | 1 µM
Cc1cc(OCc2c(F)cccc2F)c2nc(C)c(C(=O)NC3CCCCC3C#N)n2c1 (centres unmarked) [Example 11, N-(2-cyanocyclohexyl)-8-[(2,6-difluorobenzyl)oxy]-2,6-dimethylimidazo[1,2-a]pyridine-3-carboxamide] | 0.3 µM
Cc1cc(OCC2CC(F)(F)C2)c2nc(C)c(C(=O)NC(C#N)c3ccc(Cl)cc3)n2c1 (racemic) [Example 31, rac-N-[(4-chlorophenyl)(cyano)methyl]-8-[(3,3-difluorocyclobutyl)methoxy]-2,6-dimethylimidazo[1,2-a]pyridine-3-carboxamide] | 10 µM
Cc1cc(OCc2c(F)cncc2F)c2nc(C)c(C(=O)NC(C#N)c3ccc(Cl)cc3)n2c1 (racemic) [Example 30, rac-N-[(4-chlorophenyl)(cyano)methyl]-8-[(3,5-difluoropyridin-4-yl)methoxy]-2,6-dimethylimidazo[1,2-a]pyridine-3-carboxamide] | 1 µM
Cc1cc(OCc2ncccc2F)c2nc(C)c(C(=O)NC(C#N)c3ccc(Cl)cc3)n2c1 (racemic) [Example 19, rac-N-[(4-chlorophenyl)(cyano)methyl]-8-[(3-fluoropyridin-2-yl)methoxy]-2,6-dimethylimidazo[1,2-a]pyridine-3-carboxamide] | 1 µM
Cc1cc(OCc2c(F)cccc2F)c2nc(C)c(C(=O)NC(C#N)c3ccc(Cl)cc3)n2c1 (racemic) [Example 8, rac-N-[(4-chlorophenyl)(cyano)methyl]-8-[(2,6-difluorobenzyl)oxy]-2,6-dimethylimidazo[1,2-a]pyridine-3-carboxamide] | 0.1 µM
Cc1cc(OCc2c(F)cccc2F)c2nc(C)c(C(=O)NC(C#N)C(N)=O)n2c1 (racemic) [Example 34, rac-N-(2-amino-1-cyan-2-oxoethyl)-8-[(2,6-difluorobenzyl)oxy]-2,6-dimethylimidazo[1,2-a]pyridine-3-carboxamide] | 1 µM
Cc1cc(OCc2c(F)cccc2F)c2nc(C)c(C(=O)NC(C)C#N)n2c1 (single isomer, unassigned) [Example 15, ent-N-(1-Cyanoethyl)-8-[(2,6-difluorobenzyl)oxy]-2,6-dimethylimidazo[1,2-a]pyridine-3-carboxamide] | 0.3 µM
CCC(CC#N)NC(=O)c1c(C)nc2c(OCc3c(F)cccc3F)cc(C)cn12 (racemic) [Example 13, rac-N-(1-cyanobutan-2-yl)-8-[(2,6-difluorobenzyl)oxy]-2,6-dimethylimidazo[1,2-a]pyridine-3-carboxamide] | 1 µM
CCOc1ccc(NC(=O)c2c(C)nc3c(OCc4c(F)cccc4F)cc(C)cn23)cc1C#N [Example 32, N-(3-Cyano-4-ethoxyphenyl)-8-[(2,6-difluorobenzyl)oxy]-2,6-dimethylimidazo[1,2-a]pyridine-3-carboxamide] | 1 µM
Cc1cc(OCc2c(F)cccc2F)c2nc(C)c(C(=O)NCC(N)CC#N)n2c1 (single isomer, unassigned) [Example 42, ent-N-(2-Amino-3-cyanopropyl)-8-[(2,6-difluorobenzyl)oxy]-2,6-dimethylimidazo[1,2-a]pyridine-3-carboxamide] | 1 µM
Cc1cc(OCc2c(F)cccc2F)c2nc(C)c(C(=O)NCC3CCC(C#N)CC3)n2c1 (centres unmarked) [Example 12, N-[(4-cyanocyclohexyl)methyl]-8-[(2,6-difluorobenzyl)oxy]-2,6-dimethylimidazo[1,2-a]pyridine-3-carboxamide] | 0.1 µM
Cc1cc(OCc2c(F)cccc2F)c2nc(C)c(C(=O)Nc3ccccc3CC#N)n2c1 [Example 35, N-[2-(cyanomethyl)phenyl]-8-[(2,6-difluorobenzyl)oxy]-2,6-dimethylimidazo[1,2-a]pyridine-3-carboxamide] | 0.3 µM
Cc1cc(OCc2c(F)cccc2F)c2nc(C)c(C(=O)NCC(N)CC#N)n2c1 (single isomer, unassigned) [Example 43, ent-N-(2-Amino-3-cyanopropyl)-8-[(2,6-difluorobenzyl)oxy]-2,6-dimethylimidazo[1,2-a]pyridine-3-carboxamide] | 1 µM
Cc1cc(OCc2c(F)cccc2F)c2nc(C)c(C(=O)NCCCCCC#N)n2c1 [Example 10, N-(5-cyanopentyl)-8-[(2,6-difluorobenzyl)oxy]-2,6-dimethylimidazo[1,2-a]pyridine-3-carboxamide] | 0.1 µM

— patent publication US9771360B2, “Cyano-substituted imidazo[1,2-A]pyridinecarboxamides and their use” (Bayer Pharma Aktiengesellschaft, priority 2014, dated 2017)
